Experiments:
cMET = cMET (Homo sapiens, UniProt P08581); test: Evaluation of inhibitory activity against MET (TR-FRET kinase assay); type: biochemical; details: cMET protein, TK peptide substrate
Procedure: In addition, in order to measure the enzyme activity inhibition for cMET, the evaluation was performed in the same manner as the enzyme activity inhibition measurement experiment for RON.
(§1) Specifically, the compound was prepared to a concentration of 1 mM in 100% DMSO and was diluted 10 times in a stepwise manner through 3-fold dilution. The compound (2 ul) diluted in a stepwise manner was added to a 96-well-plate containing 48 ul of a 1× kinase reaction buffer (50 mM HEPES (pH 7.4), 0.05% BSA, 0.005% Tween-20, 1 mM DTT, 0.5 mM MnCl2, 20 mM MgCl2).
The cMET protein was diluted to a concentration of 263 nM in a cMET storage buffer (50 mM Tris-HCl (pH 7.5), 150 mM NaCl, 0.05% Brij35, 1 mM DTT, 10% Glycerol), and then diluted again to a concentration of 2 nM in a 1× kinase reaction buffer. As a substrate cocktail, a MET-specific substrate mixed solution (5 uM TK peptide, 10 mM ATP) was prepared at a concentration 2 times the final reaction concentration.
(§2) Thereafter, a 384-well-plate was prepared, and 2.5 μl of each of the diluted compounds of Examples was added to a corresponding well of experimental group wells, and 2.5 μl of a 4% DMSO solution was dispensed into high control wells and low control wells.
(§3) Thereafter, 2.5 μL of 2 nM cMET was dispensed into each of the high control wells and the experimental group wells, and 2.5 μL of the 1×kinase reaction buffer was added to the low control wells, and all the wells were centrifuged at room temperature for 40 seconds at 1,000 RPM, and then incubated at room temperature for 20-30 minutes. Then, 5 uL of the substrate cocktail (2×) was dispensed into each well, and all the wells were centrifuged at room temperature for 40 seconds at 1,000 RPM, and then incubated at room temperature for 60 minutes. Thereafter, 5 uL of 90 mM EDTA was added to each well to terminate the reaction, and all the wells were then incubated again at room temperature for 5 minutes. Thereafter, 5 uL of a 4× phosphotyrosine antibody (Perkin Elmer) containing europium was added to each well, and all the wells were then incubated at room temperature for 60 minutes. After the incubation, the 384-well-plate was read with the Vison plate reader. In this case, the excitation wavelength was 340 nm, and the emission wavelength was 620 nm and 665 nm. The IC50 value of each compound of Examples was derived using the GraphPd Prism7 program.

RON = RON (Homo sapiens, UniProt Q04912); test: Evaluation of inhibitory activity against RON (TR-FRET kinase assay); type: biochemical; details: RON protein, ULight-labeled Poly GT substrate
Sequence of RON (Q04912 25-1400, species assumed): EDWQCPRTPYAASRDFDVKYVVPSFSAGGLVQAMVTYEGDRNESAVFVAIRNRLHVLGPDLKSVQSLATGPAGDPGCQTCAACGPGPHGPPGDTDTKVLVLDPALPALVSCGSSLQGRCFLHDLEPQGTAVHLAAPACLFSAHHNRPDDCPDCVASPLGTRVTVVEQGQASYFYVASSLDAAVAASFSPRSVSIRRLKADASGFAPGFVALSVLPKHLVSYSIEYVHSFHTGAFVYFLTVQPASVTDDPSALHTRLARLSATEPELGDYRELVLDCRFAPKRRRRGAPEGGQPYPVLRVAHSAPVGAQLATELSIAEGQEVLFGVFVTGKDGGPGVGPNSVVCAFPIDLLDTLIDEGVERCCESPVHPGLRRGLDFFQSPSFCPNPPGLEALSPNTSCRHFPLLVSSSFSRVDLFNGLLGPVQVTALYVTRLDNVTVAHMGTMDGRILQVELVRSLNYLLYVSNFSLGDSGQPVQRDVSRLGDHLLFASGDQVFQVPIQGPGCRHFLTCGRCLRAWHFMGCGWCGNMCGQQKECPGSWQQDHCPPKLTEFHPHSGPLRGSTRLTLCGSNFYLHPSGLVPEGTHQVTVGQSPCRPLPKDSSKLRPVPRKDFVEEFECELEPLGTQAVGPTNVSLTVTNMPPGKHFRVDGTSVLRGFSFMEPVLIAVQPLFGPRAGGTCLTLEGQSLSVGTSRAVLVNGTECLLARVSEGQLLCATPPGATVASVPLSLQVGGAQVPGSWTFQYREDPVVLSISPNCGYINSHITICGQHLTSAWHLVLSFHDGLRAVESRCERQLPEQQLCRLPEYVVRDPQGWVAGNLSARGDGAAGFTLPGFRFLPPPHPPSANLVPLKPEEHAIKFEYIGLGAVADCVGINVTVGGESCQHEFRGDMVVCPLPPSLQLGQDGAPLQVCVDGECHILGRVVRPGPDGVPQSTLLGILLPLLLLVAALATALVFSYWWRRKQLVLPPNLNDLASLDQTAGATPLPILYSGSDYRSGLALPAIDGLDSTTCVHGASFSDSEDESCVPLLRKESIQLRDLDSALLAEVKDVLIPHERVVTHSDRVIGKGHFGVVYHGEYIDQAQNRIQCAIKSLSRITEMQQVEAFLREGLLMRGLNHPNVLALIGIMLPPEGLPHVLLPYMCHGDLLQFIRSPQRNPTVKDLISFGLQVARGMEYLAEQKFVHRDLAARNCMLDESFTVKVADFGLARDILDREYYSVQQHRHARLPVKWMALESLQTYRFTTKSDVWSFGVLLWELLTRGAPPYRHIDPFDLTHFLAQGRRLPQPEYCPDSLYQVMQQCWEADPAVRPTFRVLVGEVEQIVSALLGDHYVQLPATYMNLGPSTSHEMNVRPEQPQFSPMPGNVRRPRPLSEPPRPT
Procedure: In order to measure the inhibitory activity of each of the compounds of Examples against RON, the IC50 of each of the compounds was measured using Time-resolved fluorescence energy transfer (TR-FRET).
as §1, with “7.4), 0.01%” for “7.4), 0.05% BSA, 0.005%”, “Tween-20, 5” for “Tween-20, 1”, “mM Na3VO4, 2 mM EGTA, 10” for “mM MnCl2, 20”
The RON protein was diluted to a concentration of 49.3 nM in a RON storage buffer (50 mM Tris-HCl (pH 7.5), 150 mM NaCl, 0.5 mM EDTA, 0.02% Triton X-100), and then diluted again to a concentration of 0.4 nM in a 1×kinase reaction buffer. As a substrate cocktail, a RON-specific substrate mixed solution (40 uM ULight-labeled Poly GT, 100 nM ATP) was prepared at a concentration 2 times the final reaction concentration.
as §2
as §3, with “of 0.4” for “of 2”, “nM RON” for “nM cMET”, “the 1× kinase” for “the 1×kinase”, “of 30” for “of 90”

Sequence of cMET (P08581 25-1390): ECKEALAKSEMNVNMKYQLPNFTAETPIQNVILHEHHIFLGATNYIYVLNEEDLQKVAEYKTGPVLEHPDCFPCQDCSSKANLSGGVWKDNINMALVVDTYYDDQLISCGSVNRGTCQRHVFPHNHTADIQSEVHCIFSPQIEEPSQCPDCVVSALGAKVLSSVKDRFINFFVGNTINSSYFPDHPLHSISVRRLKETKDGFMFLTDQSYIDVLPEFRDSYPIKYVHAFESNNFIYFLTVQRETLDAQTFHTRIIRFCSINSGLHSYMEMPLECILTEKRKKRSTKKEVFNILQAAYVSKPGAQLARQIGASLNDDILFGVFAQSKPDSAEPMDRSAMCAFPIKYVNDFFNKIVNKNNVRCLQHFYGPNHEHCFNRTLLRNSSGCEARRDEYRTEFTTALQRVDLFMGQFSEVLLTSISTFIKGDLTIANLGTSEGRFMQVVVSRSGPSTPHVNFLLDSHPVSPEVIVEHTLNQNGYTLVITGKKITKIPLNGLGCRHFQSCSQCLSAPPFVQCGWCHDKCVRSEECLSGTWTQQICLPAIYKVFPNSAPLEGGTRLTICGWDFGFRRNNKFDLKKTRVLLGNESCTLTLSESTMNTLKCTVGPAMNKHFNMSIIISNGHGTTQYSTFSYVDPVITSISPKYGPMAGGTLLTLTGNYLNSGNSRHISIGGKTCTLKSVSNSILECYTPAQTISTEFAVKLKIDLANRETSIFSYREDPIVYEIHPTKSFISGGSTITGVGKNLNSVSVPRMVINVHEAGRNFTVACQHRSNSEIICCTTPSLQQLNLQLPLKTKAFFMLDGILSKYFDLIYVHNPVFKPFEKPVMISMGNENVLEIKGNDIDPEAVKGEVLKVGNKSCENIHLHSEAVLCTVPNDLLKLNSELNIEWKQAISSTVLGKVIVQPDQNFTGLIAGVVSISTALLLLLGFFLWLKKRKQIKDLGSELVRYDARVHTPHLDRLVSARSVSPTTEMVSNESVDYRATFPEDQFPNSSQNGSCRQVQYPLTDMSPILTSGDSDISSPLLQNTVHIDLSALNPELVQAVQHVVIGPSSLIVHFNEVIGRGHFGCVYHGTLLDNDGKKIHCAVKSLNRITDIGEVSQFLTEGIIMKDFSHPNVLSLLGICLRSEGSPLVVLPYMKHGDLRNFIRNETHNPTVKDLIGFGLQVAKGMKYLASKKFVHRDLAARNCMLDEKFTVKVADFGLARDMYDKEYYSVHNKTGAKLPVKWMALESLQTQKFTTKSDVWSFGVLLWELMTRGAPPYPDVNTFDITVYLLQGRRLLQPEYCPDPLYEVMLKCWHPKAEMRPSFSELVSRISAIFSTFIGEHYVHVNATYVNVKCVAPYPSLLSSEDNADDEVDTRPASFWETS

Row | SMILES | IC50 (cMET) [nM] | IC50 (RON) [nM]
1 | Nc1ncnc(Oc2ccc(NC(=O)c3cnn(C4CCCOC4)c3C(F)(F)F)cc2F)c1Cl (stereo not drawn) [Example 50] | > 5000 | 500 to 5000
2 | CCc1c(C(=O)Nc2ccc(Oc3ccnc(N)c3Cl)c(F)c2)cnn1-c1ccccc1 [Example 5, N-(4-((2-amino-3-chloropyridin-4-yl)oxy)-3-fluorophenyl)-5-ethyl-1-phenyl-1H-pyrazole-4-carboxamide] | 500 to 5000 | 50 to 500
3 | O=C(Nc1ccc(Oc2ccnc(NC(=O)C3CC3)c2)c(F)c1)c1ncn(-c2ccccc2)c1C(F)(F)F [Example 26, N-(4-((2-cyclopropanecarboxamido)pyridin-4-yl)oxy-3-fluorophenyl)-1-phenyl-5-(trifluoromethyl)-1H-imidazole-4-carboxamide] | > 5000 | 50 to 500
4 | Cc1nc(-c2ccccc2)sc1C(=O)Nc1ccc(Oc2ccnc(N)c2Cl)c(F)c1 [Example 31, N-(4-((2-amino-3-chloropyridin-4-yl)oxy)-3-fluorophenyl)-4-methyl-2-phenylthiazole-5-carboxamide] | > 5000 | 500 to 5000
5 | O=C(Nc1ccc(Oc2ccnc(NC(=O)C3CC3)c2Cl)c(F)c1)c1ncn(-c2ccccc2)c1C(F)(F)F [Example 23] | > 5000 | 50 to 500
6 | Nc1ncnc(Oc2ccc(NC(=O)c3cnn(-c4ccccc4)c3C(F)(F)F)cc2F)c1Cl [Example 46, N-(4-((6-amino-5-chloro-pyrimidin-4-yl)oxy)-3-fluorophenyl)-1-phenyl-5-(trifluoromethyl)-1H-pyrazole-4-carboxamide] | > 5000 | 50 to 500
7 | Nc1nccc(Oc2ccc(NC(=O)c3cnn(-c4ccc(F)cc4)c3C(F)(F)F)cc2F)c1Cl [Example 11, N-(4-((2-amino-3-chloropyridin-4-yl)oxy)-3-fluorophenyl)-1-(4-fluorophenyl)-5-(trifluoromethyl)-1H-pyrazole-4-carboxamide] | > 5000 | 500 to 5000
8 | Nc1ncnc(Oc2ccc(NC(=O)c3cn(-c4ccccc4)nn3)cc2F)c1Cl [Example 54, N-[4-(6-amino-5-chloro-pyrimidin-4-yl)oxy-3-fluorophenyl]-1-phenyl-triazole-4-carboxamide] | > 5000 | > 5000
9 | O=C(Nc1ccc(Oc2ncnc(NC3CC3)c2Cl)c(F)c1)c1cnn(-c2ccccc2)c1C(F)(F)F [Example 62, N-(4-((5-chloro-6-(cyclopropylamino)pyrimidin-4-yl)oxy)-3-fluorophenyl)-1-phenyl-5-(trifluoromethyl)-1H-pyrazole-4-carboxamide] | > 5000 | > 5000
10 | Cc1c(C(=O)Nc2ccc(Oc3ccnc(N)c3Cl)c(F)c2)cnn1-c1ccccc1 [Example 3, N-(4-((2-amino-3-chloropyridin-4-yl)oxy)-3-fluorophenyl)-5-methyl-1-phenyl-1H-pyrazole-4-carboxamide] | 50 to 500 | 50 to 500
11 | Nc1nccc(Oc2ccc(NC(=O)c3ncn(-c4ccccc4)c3C(F)(F)F)cc2F)c1N [Example 27] | > 5000 | 50 to 500
12 | Nc1nccc(Oc2ccc(NC(=O)c3ncn(-c4ccccc4)c3C(F)(F)F)cc2F)c1I [Example 29, N-(4-((2-amino-3-iodopyridin-4-yl)oxy)-3-fluorophenyl)-1-phenyl-5-(trifluoromethyl)-1H-imidazole-4-carboxamide] | 500 to 5000 | < 50
13 | Nc1nccc(Oc2ccc(NC(=O)c3cnn(-c4ccccc4)c3C(F)(F)F)cc2F)c1N [Example 28] | > 5000 | 50 to 500
14 | Cc1nc(C(=O)Nc2ccc(Oc3ccnc(N)c3Cl)c(F)c2)c(C)n1-c1ccccc1 [Example 14, N-(4-((2-amino-3-chloropyridin-4-yl)oxy)-3-fluorophenyl)-2,5-dimethyl-1-phenyl-1H-imidazole-4-carboxamide] | 500 to 5000 | 50 to 500
15 | Nc1ncnc(Oc2ccc(NC(=O)c3cnn(-c4ccccc4)c3)cc2F)c1Cl [Example 57, N-(4-((6-amino-5-chloro-pyrimidin-4-yl)oxy)-3-fluorophenyl)-1-phenyl-1H-pyrazole-4-carboxamide] | > 5000 | > 5000
16 | Cc1ccc(-n2ncc(C(=O)Nc3ccc(Oc4ccnc(N)c4Cl)c(F)c3)c2C(F)(F)F)cc1 [Example 15, N-(4-((2-amino-3-chloropyridin-4-yl)oxy)-3-fluorophenyl)-1-(p-tolyl)-5-(trifluoromethyl)-1H-pyrazole-4-carboxamide] | 500 to 5000 | > 5000
17 | Nc1nccc(Oc2ccc(NC(=O)c3cnn(-c4ccccc4)c3C(F)F)cc2F)c1Cl [Example 6, N-(4-((2-amino-3-chloropyridin-4-yl)oxy)-3-fluorophenyl)-5-(difluoromethyl)-1-phenyl-1H-pyrazole-4-carboxamide] | > 5000 | 50 to 500
18 | Nc1nccc(Oc2ccc(NC(=O)c3cnn(Cc4ccccc4)c3C(F)(F)F)cc2F)c1Cl [Example 13, N-(4-((2-amino-3-chloropyridin-4-yl)oxy)-3-fluorophenyl)-1-benzyl-5-(trifluoromethyl)-1H-pyrazole-4-carboxamide] | 500 to 5000 | 500 to 5000
19 | Nc1cc(Oc2ccc(NC(=O)c3cnn(-c4ccccc4)c3C(F)(F)F)cc2F)ccn1 [Example 44, N-(4-((2-aminopyridin-4-yl)oxy)-3-fluorophenyl)-1-phenyl-5-(trifluoromethyl)-1H-pyrazole-4-carboxamide] | > 5000 | 50 to 500
20 | Nc1nccc(Oc2ccc(NC(=O)c3cnn(-c4ccccc4)c3-c3ccccc3)cc2F)c1Cl [Example 19, N-(4-((2-amino-3-chloropyridin-4-yl)oxy)-3-fluorophenyl)-1,5-diphenyl-1H-pyrazole-4-carboxamide] | 500 to 5000 | 50 to 500
21 | Nc1nccc(Oc2ccc(NC(=O)c3cnn(-c4ccccc4Cl)c3C(F)(F)F)cc2F)c1Cl [Example 36, N-(4-((2-amino-3-chloropyridin-4-yl)oxy)-3-fluorophenyl)-1-(2-chlorophenyl)-5-(trifluoromethyl)-1H-pyrazole-4-carboxamide] | 500 to 5000 | 50 to 500
22 | CCc1c(C(=O)Nc2ccc(Oc3ncnc(N)c3Cl)c(F)c2)cnn1-c1ccccc1 [Example 47] | > 5000 | 50 to 500
23 | Nc1nccc(Oc2ccc(NC(=O)c3cnn(-c4ccccc4)c3F)cc2F)c1Cl [Example 20, N-(4-((2-amino-3-chloropyridin-4-yl)oxy)-3-fluorophenyl)-5-fluoro-1-phenyl-1H-pyrazole-4-carboxamide] | > 5000 | 50 to 500
24 | Nc1nccc(Oc2ccc(NC(=O)c3cnn(C4CCCOC4)c3C(F)(F)F)cc2F)c1Cl (stereo not drawn) [Example 8, N-(4-((2-amino-3-chloropyridin-4-yl)oxy)-3-fluorophenyl)-1-(tetrahydro-2H-pyran-3-yl)-5-(trifluoromethyl)-1H-pyrazole-4-carboxamide] | 500 to 5000 | 50 to 500

— patent US20240316017A1, “NOVEL PYRIDINE DERIVATIVE COMPOUND AS RON INHIBITOR” (LG CHEM, LTD., priority 2021, published 2024)
